This experiment concerns Mycobacterium tuberculosis H37Rv growth inhibition, no glycerol. As to the kind of experiment: Confirmatory growth inhibition assay, Mycobacterium tuberculosis H37Rv, absence of glycerol (AID 449764).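 As to all read-outs here: growth read after 7 days of incubation.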 The settings on record: for IC90: measured here: IC90 growth inhibition.

Structures are written as SMILES. Bounds are passed on as bounds.

One may read the IC50 as the concentration needed to halve the response being measured. One may read the IC90 as the concentration at which the effect reaches the 90% level. Lower therefore signals an effect from little substance. For `Cc1cc(O)c2c(c1)C(=O)c1cc(O)cc(O)c1C2=O`, the IC50 was 89 µM and the IC90 is over 100 µM.
The matching figures for `CCCCn1cnc2c(c(-c3ccccc3)c(-c3ccccc3)n2Cc2ccco2)c1=N`: 94.8 µM and over 100 µM.
The matching figures for `Cc1ccc(C(=O)c2oc3ccc(Cl)cc3c2NC(=O)CN2CCN(C)CC2)cc1`: 14.9 µM and 19.6 µM.
As for `N=C1C(c2nc3ccccc3[nH]2)=C(O)CN1NC(=O)c1c[nH]c2ccccc12`, the IC50 was 26.7 µM and the IC90 came to 40.1 µM.
The matching figures for `Cc1ccccc1-n1c(SCC(=O)N/N=C/c2c(C)nn(-c3ccccc3)c2C)nc2ccccc2c1=O`: 4.6 µM and 6.27 µM.
On the same counts, the results for `O=[N+]([O-])c1ccc(-c2nc(-c3cccs3)c(-c3cccs3)[nH]2)cc1` are 20.8 µM and over 100 µM.
On the same counts, the results for `Cc1c(Cl)ccc2sc(N3CCN(C(=O)C4=COCCO4)CC3)nc12` are 22.5 µM and 30.6 µM.
On to `Cc1ccc(N2C(=O)C(F)(F)C2c2ccccc2)cc1` (stereo unspecified), for which the IC50 is 4.61 µM and the IC90 came to 7.9 µM.
The matching figures for `Cc1ccc(C)c(N/C(N)=N/c2nc(C)cc(C)n2)c1`: 7.67 µM and 12.7 µM.
The matching figures for `O=C(OCc1ccccc1F)c1cnc(Cl)c(Cl)c1`: 22 µM and 55 µM.
On the same counts, the results for `Cc1ccc(S(=O)(=O)N2CCC(C(=O)OCc3ccccc3)CC2)cc1C` are 46.5 µM and 52.2 µM.
Regarding `Cc1ccc(Cn2ccsc2=NC(=O)CCl)cc1`, the half-inhibitory concentration (IC50) is 2.86 µM and the IC90 amounted to 6.73 µM.
Consider `COc1cccc(NC(=S)/C(=C(\[O-])c2cc(C)n(-c3ccccc3F)c2C)[n+]2ccc(N(C)C)cc2)c1`, for which the IC50 was 70.2 µM and the IC90 was determined as 90.3 µM.
The matching figures for `O=C(O)/C=C/C(=O)Nc1ccc(-c2ccccc2)cc1`: 94.1 µM and over 100 µM.
Consider `CN(C)CCCN1c2ccccc2Sc2ccc(Cl)cc21`, for which the IC50 is 46.6 µM and the IC90 worked out at 60 µM.
On the same counts, the results for `Clc1ccc(NNc2ccnc3cc(Cl)ccc23)cc1` are 15.4 µM and 19.9 µM.
On the same counts, the results for `OCC(O)/C=N/Nc1nc(Nc2ccccc2)nc(Nc2ccccc2)n1` (stereo unspecified) are 14 µM and 24.1 µM.
On the same counts, the results for `CCCCNC(=S)Nc1ccc2cn[nH]c2c1` are 12 µM and 31.8 µM.
As to `Cc1[nH]c2ccccc2c1C(=O)COC(=O)c1ccc([N+](=O)[O-])s1`, the IC50 is 1.32 µM and the IC90 worked out at 3.24 µM.
The matching figures for `CCOC(=O)N1CCc2c(sc(NC(=O)c3ccc(Cl)s3)c2C(N)=O)C1`: 6.96 µM and 19.1 µM.
The matching figures for `CCN(CCNCC(O)COc1ccccc1C(C)C)c1cccc(C)c1` (stereo unspecified): 22.8 µM and 26 µM.
On the same counts, the results for `O=C(/C=C/c1ccc(O)cc1)c1ccc(NC2=C(N3CCCCC3)C(=O)c3ccccc3C2=O)cc1` are 17.5 µM and 22.4 µM.
Consider `O=c1c(-c2cnn(-c3ccccc3)c2)coc2cc(O)ccc12`, for which the IC50 was 48.1 µM and the IC90 is over 100 µM.
On the same counts, the results for `O=C(CN1CCN(c2nc(-c3ccc(F)cc3)cs2)CC1)NCc1ccc2c(c1)OCO2` are 38.1 µM and 55.6 µM.
The matching figures for `O=[N+]([O-])c1cc([N+](=O)[O-])c2c(=Nc3ccccc3)n(-c3ccccc3)n(O)c2c1`: 8.32 µM and 10.3 µM.
On the same counts, the results for `CCOc1ccc(N2C=Nc3ccc(OCC)cc3C2)cc1` are 79.2 µM and over 100 µM.
On to `Nc1c(-c2ccccn2)cnn1-c1nc(-c2ccc(F)cc2)cs1`, for which the IC50 is 59.7 µM and the IC90 is over 100 µM.
The matching figures for `COc1ccc2c3n(nc2c1)CCN=C3c1cc(Cl)c(N)c(Cl)c1`: 94.1 µM and 97.7 µM.

For the origin of these results see PubChem BioAssay AID449764 (Southern Research Specialized Biocontainment Screening …, 2010).
